This assay relates to axillary sweating. Briefly: Clinical study of the effect of Propylparaben on axillary sweating (gravimetric sweat measurement). It is filed as in vivo, human.

Regarding `CCCOC(=O)c1ccc(O)cc1` [Propylparaben], the “greater effectiveness in reducing sweat production than placebo (by responder assessment)” value (based on percent of subjects with at least 30% reduction versus Baseline, versus placebo (water)) is 245%. Also, the “conclusion on activity in reducing sweat production” value (overall conclusion of the clinical study) is on record as “biologically active in reducing sweat production”. Also, the “reduction in sweat production (average), gravimetric sweat measurement” value (subjects with moderate to severe primary axillary hyperhidrosis, single topical treatment, 0.20 mg per axilla, two weeks after treatment, 5 minute collection) is 177 mg. Further, where the note is “two weeks after single topical treatment, 0.20 mg per axilla, gravimetric sweat measurement”, the “percent of subjects with at least a 30% reduction in sweat production compared to Baseline” value turned out to be 70%. In addition, the “greater reduction in sweat production than the control (placebo) group” value (two weeks after single topical treatment, 0.20 mg per axilla, versus placebo (water)) is recorded as 337%.

The values above are taken from patent US20120321571A1, “PARABEN COMPOSITIONS” (ANTERIOS, INC., priority 2011, published 2012).
